# Measurements published in publication PMC10073475, “Effect of mTOR inhibitors on sodium taurocholate cotransporting polypeptide (NTCP) function in vitro” (Frontiers in Pharmacology, 2023).
# What was measured:
# [1] = molecular target: T1, sodium taurocholate cotransporting polypeptide (NTCP) (Homo sapiens, UniProt Q14973); assay: [3H]-taurocholate uptake inhibition at […] in NTCP-GFP Flp-In T-REx […] and differentiated HuH-7 cells; type: cell-based
# T1 construct: gene SLC10A1; GFP-tagged human NTCP (NM_003049)
# T1 sequence (Q14973 1-349): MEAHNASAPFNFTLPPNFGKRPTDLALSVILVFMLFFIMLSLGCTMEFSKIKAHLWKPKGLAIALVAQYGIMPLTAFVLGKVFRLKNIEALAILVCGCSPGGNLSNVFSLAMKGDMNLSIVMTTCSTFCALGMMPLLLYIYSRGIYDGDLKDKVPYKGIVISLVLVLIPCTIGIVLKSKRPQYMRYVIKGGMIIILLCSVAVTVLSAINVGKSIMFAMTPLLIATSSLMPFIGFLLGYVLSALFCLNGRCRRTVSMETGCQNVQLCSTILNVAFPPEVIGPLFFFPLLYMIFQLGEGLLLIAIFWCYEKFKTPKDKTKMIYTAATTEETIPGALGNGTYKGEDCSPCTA
# [2] = molecular target: T1, sodium taurocholate cotransporting polypeptide (NTCP); assay: [3H]-taurocholate uptake inhibition in NTCP-GFP Flp-In T-REx […] cells (IC50 […] in differentiated HuH-7); type: cell-based
structure (smiles),measurement,setting,value
CO[C@H]1C[C@@H]2CC[C@@H](C)[C@@](O)(O2)C(=O)C(=O)N2CCCC[C@H]2C(=O)O[C@H]([C@H](C)C[C@@H]2CC[C@@H](OC(=O)C(C)(CO)CO)[C@H](OC)C2)CC(=O)[C@H](C)/C=C(\C)[C@@H](O)[C@@H](OC)C(=O)[C@H](C)C[C@H](C)/C=C/C=C/C=C/1C [temsirolimus],[3H]-taurocholate uptake inhibition at 10 μM in NTCP-GFP Flp-In T-REx 293 and di,[1],"everolimus, sirolimus and temsirolimus significantly inhibited TCA accumulation in Na^+-containing ECF buffer and NTCP-mediated TCA accumulation"
CO[C@H]1C[C@@H]2CC[C@@H](C)[C@@](O)(O2)C(=O)C(=O)N2CCCC[C@H]2C(=O)O[C@H]([C@H](C)C[C@@H]2CC[C@@H](OCCO)[C@H](OC)C2)CC(=O)[C@H](C)/C=C(\C)[C@@H](O)[C@@H](OC)C(=O)[C@H](C)C[C@H](C)/C=C/C=C/C=C/1C [everolimus],IC50,[2],6.7 ± 1.3 µM
